Test [1] has as its target Neurotensin receptor type 2 (Homo sapiens, UniProt O95665). Description: Displacement of [leucine-3H]NT (8 to 13 residues) from human NTS2 receptor expressed in HEK293 cell membranes after 60 mins by scintillation counting.
Test [2] deals with Neurotensin receptor type 1 (Homo sapiens, UniProt P30989). Description: Displacement of [3H]neurotensin from human NTS1 receptor expressed in CHOK1 cell membranes after 60 mins by scintillation counting. Set-up: species or system CHO-K1.
Sequence of Neurotensin receptor type 1 (P30989 whole entry): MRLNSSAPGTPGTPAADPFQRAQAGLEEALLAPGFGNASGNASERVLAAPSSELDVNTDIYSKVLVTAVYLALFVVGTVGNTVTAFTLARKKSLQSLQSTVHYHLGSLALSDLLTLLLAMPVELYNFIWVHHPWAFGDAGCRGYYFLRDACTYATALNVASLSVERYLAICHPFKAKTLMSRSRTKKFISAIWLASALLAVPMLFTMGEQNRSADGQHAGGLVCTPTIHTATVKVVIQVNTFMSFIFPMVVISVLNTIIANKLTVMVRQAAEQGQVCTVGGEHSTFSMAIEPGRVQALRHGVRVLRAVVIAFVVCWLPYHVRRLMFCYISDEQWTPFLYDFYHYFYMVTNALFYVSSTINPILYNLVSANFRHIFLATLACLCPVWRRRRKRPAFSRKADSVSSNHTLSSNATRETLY
A short description of test [3]: Selectivity ratio of IC50 for human NTS1 receptor expressed in CHOK1 cell membranes to IC50 for NTS2 receptor expressed in HEK293 cell membranes.

pKi: −log10 of the molar value. *1 amine or outer side, *2 acyl side, *3 side chain or, on linkers, in order; H or OH if unused. Where a SMILES comes first, the peptide text is derived from it. [ ]: non-standard residue; d: D form. X2 = O=C([C@]1(N[*:1])CCO[C@@H]1c1ccc(Br)cc1)[*:2]; X1 = O=C([C@@]1(N[*:1])CCO[C@H]1c1ccc(O)cc1)[*:2]; X3 = O=C([C@]1(N[*:1])CCO[C@@H]1c1ccc(O)cc1)[*:2]

Sequence of Neurotensin receptor type 2 (O95665 whole entry, the tested form may be a part): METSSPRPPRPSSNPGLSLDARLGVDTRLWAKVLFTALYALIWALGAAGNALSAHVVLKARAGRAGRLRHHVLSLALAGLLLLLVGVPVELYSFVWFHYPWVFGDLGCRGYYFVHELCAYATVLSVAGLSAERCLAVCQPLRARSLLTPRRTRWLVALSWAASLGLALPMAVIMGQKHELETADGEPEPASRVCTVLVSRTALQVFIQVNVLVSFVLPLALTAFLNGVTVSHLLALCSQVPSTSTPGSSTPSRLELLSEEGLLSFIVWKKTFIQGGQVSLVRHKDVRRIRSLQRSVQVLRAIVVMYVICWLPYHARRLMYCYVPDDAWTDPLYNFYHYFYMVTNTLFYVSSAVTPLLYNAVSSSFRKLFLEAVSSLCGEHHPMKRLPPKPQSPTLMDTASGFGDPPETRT

As for `CC[C@H](C)[C@H](NC(=O)C1(NC(=O)[C@@H]2CCCN2C(=O)[C@H](CCCNC(=N)N)NC(=O)[C@@H](N)CCCNC(=N)N)CCOC1c1ccc(Br)cc1)C(=O)N[C@@H](CC(C)C)C(=O)O` (some centres undefined), in test [1], the pKi is 7.92.

In test [1], `CC[C@H](C)[C@H](NC(=O)[C@]1(NC(=O)[C@@H]2CCCN2C(=O)[C@H](CCCNC(=N)N)NC(=O)[C@@H](N)CCCNC(=N)N)CCO[C@@H]1c1ccc(Br)cc1)C(=O)N[C@@H](CC(C)C)C(=O)O` gave a pKi of 6.21.

For `CC[C@H](C)[C@H](NC(=O)[C@@H](Cc1ccc(Br)cc1)NC(=O)[C@@H]1CCCN1C(=O)[C@H](CCCCN)NC(=O)[C@@H](N)CCCCN)C(=O)N[C@@H](CC(C)C)C(=O)O`, the results for the pKi in test [2] and in test [1] were 5.66 and 6.06, respectively.

Consider `CC[C@H](C)[C@H](NC(=O)[C@]1(NC(=O)[C@@H]2CCCN2C(=O)[C@H](CCCNC(=N)N)NC(=O)[C@@H](N)CCCNC(=N)N)CCO[C@@H]1c1ccc(O)cc1)C(=O)N[C@@H](CC(C)C)C(=O)O`, for which, in test [1], the pKi was 7.92.

Take `CC[C@H](C)[C@H](NC(=O)[C@H](Cc1ccc(Br)cc1)NC(=O)[C@@H]1CCCN1C(=O)[C@H](CCCCN)NC(=O)[C@@H](N)CCCCN)C(=O)N[C@@H](CC(C)C)C(=O)O`: the pKi in test [2] is 7.03; in test [1] it was 7.16.

`CC[C@H](C)[C@H](NC(=O)[C@]1(NC(=O)[C@@H]2CCCN2C(=O)[C@H](CCCCN)NC(=O)[C@@H](N)CCCCN)CCO[C@@H]1c1ccc(Br)cc1)C(=O)N[C@@H](CC(C)C)C(=O)O` (H-KKP[X2]IL-OH): the pKi in test [2] was 4.89.

Consider `CC[C@H](C)[C@H](NC(=O)[C@]1(NC(=O)[C@@H]2CCCN2C(=O)[C@H](CCCNC(=N)N)NC(=O)[C@@H](N)CCCCN)CCO[C@@H]1c1ccc(Br)cc1)C(=O)N[C@@H](CC(C)C)C(=O)O` (H-KRP[X2]IL-OH), for which the negative-log Ki (pKi) is 5.30 in test [2] and 6.96 in test [1].

On to `CC[C@H](C)[C@H](NC(=O)[C@]1(NC(=O)[C@@H]2CCCN2C(=O)[C@H](CCCCN)NC(=O)[C@@H](N)CCCNC(=N)N)CCO[C@@H]1c1ccc(Br)cc1)C(=O)N[C@@H](CC(C)C)C(=O)O` (H-RKP[X2]IL-OH), for which, in test [2], the pKi was 5.00.

On to `CC(C)C[C@H](NC(=O)CNC(=O)[C@@]1(NC(=O)[C@@H]2CCCN2C(=O)[C@H](CCCNC(=N)N)NC(=O)[C@@H](N)CCCNC(=N)N)CCO[C@H]1c1ccc(O)cc1)C(=O)O` (H-RRP[X1]GL-OH), for which the pKi in test [2] was 4.46; in test [1], 7.54. In test [3], the “Ratio Ki” value is on record as more than 1000.

Regarding `CC(C)C[C@H](NC(=O)CNC(=O)[C@]1(NC(=O)[C@@H]2CCCN2C(=O)[C@H](CCCNC(=N)N)NC(=O)[C@@H](N)CCCNC(=N)N)CCO[C@@H]1c1ccc(O)cc1)C(=O)O` (H-RRP[X3]GL-OH), the pKi in test [2] is 4.70; in test [1] it was 6.15.

With `CC(C)C[C@H](NC(=O)C1(NC(=O)[C@@H]2CCCN2C(=O)[C@H](CCCCN)NC(=O)[C@@H](N)CCCCN)CCOC1c1ccc(Br)cc1)C(=O)O` (stereo in doubt; 7-1), the pKi in test [2] was 4.17; in test [1], 4.57.

In the case of `CC(C)C[C@H](NC(=O)C1(NC(=O)[C@@H]2CCCN2C(=O)[C@H](CCCCN)NC(=O)[C@@H](N)CCCCN)CCOC1c1ccc(Br)cc1)C(=O)O` (stereo in doubt; 7-2), the pKi is 4.02 in test [2] and 5.69 in test [1].

In the case of `CC(C)C[C@H](NC(=O)C1(NC(=O)[C@@H]2CCCN2C(=O)[C@H](CCCNC(=N)N)NC(=O)[C@@H](N)CCCCN)CCOC1c1ccc(Br)cc1)C(=O)O` (stereo in doubt; 8-1), the values for the pKi in test [2] and in test [1] were 4.28 and 4.55, respectively.

For the compound `CC(C)C[C@H](NC(=O)C1(NC(=O)[C@@H]2CCCN2C(=O)[C@H](CCCNC(=N)N)NC(=O)[C@@H](N)CCCCN)CCOC1c1ccc(Br)cc1)C(=O)O` (stereo in doubt; 8-2), the pKi in test [2] is 4.03; in test [1] it was 4.96.

In test [2], `CC(C)C[C@H](NC(=O)C1(NC(=O)[C@@H]2CCCN2C(=O)[C@H](CCCCN)NC(=O)[C@@H](N)CCCNC(=N)N)CCOC1c1ccc(Br)cc1)C(=O)O` (stereo in doubt; 9-1) showed a pKi of 4.15.

Take `CC(C)C[C@H](NC(=O)C1(NC(=O)[C@@H]2CCCN2C(=O)[C@H](CCCCN)NC(=O)[C@@H](N)CCCNC(=N)N)CCOC1c1ccc(Br)cc1)C(=O)O` (stereo in doubt; 9-2): in test [2], the negative logarithm of the Ki (pKi) was less than 4.00.

On to `CC(C)C[C@H](NC(=O)C1(NC(=O)[C@@H]2CCCN2C(=O)[C@H](CCCNC(=N)N)NC(=O)[C@@H](N)CCCNC(=N)N)CCOC1c1ccc(Br)cc1)C(=O)O` (stereo in doubt; 10-1), for which the pKi in test [2] is 4.04; in test [1] it was 4.31.

With `CC(C)C[C@H](NC(=O)C1(NC(=O)[C@@H]2CCCN2C(=O)[C@H](CCCNC(=N)N)NC(=O)[C@@H](N)CCCNC(=N)N)CCOC1c1ccc(Br)cc1)C(=O)O` (stereo in doubt; 10-2), the pKi in test [2] is 4.14; in test [1] it was 5.84.

As for `CC(C)C[C@H](NC(=O)CNC(=O)C1(NC(=O)[C@@H]2CCCN2C(=O)[C@H](CCCCN)NC(=O)[C@@H](N)CCCCN)CCOC1c1ccc(Br)cc1)C(=O)O` (stereo in doubt; 16-1), the pKi is less than 4.30 in test [2] and 6.30 in test [1].

For `CC(C)C[C@H](NC(=O)CNC(=O)C1(NC(=O)[C@@H]2CCCN2C(=O)[C@H](CCCCN)NC(=O)[C@@H](N)CCCCN)CCOC1c1ccc(Br)cc1)C(=O)O` (stereo in doubt; 16-2), the pKi in test [2] is 4.46; in test [1], 5.71.

Values taken from ChEMBL document CHEMBL3871285, “NTS2-selective neurotensin mimetics with tetrahydrofuran amino acids” (Bioorg Med Chem, 2017).
